Reference: patent US6713476B2, “Substituted cycloalkyls as inhibitors of a beta protein production” (Dupont Pharmaceuticals Company, priority 2000, dated 2004)

Question: With `CN1C(=O)[C@@H](NC(=O)C2(CNC3CCCCC3)CCCC2)N=C(c2ccccc2)c2ccccc21` as the molecule, how does the melting point read?
Answer: 82 to 86 °C
